Article PMC8268672 (Bioorganic Chemistry, 2021)

Assays:
[1] = system: Punta Toro virus; test: CPE reduction assay in Vero cells; format: cell-based; conditions: read-out: Antiviral EC50, Punta Toro virus
[2] = system: Para-influenza-3 virus; test: CPE reduction assay in Vero cells; format: cell-based, Parainfluenza-3 virus; conditions: Vero, read-out: Antiviral EC50, Para-influenza-3 virus
[3] = system: Sindbis virus; test: CPE reduction assay in Vero cells; format: cell-based; conditions: read-out: Antiviral EC50, Sindbis virus
[4] = system: Yellow Fever virus; test: microbe, parasite or virus in culture; format: cell-based; conditions: Yellow fever virus, Vero, read-out: Antiviral EC50, Yellow Fever virus
[5] = system: Reovirus-1; test: CPE reduction assay in Vero cells; format: cell-based; conditions: read-out: Antiviral EC50, Reovirus-1
[6] = system: Coxsackie virus B4; test: CPE reduction assay in Vero cells; format: cell-based; conditions: Enterovirus B, read-out: Antiviral EC50, Coxsackie virus B4
[7] = system: Vero cells; conditions: Vero cell cultures; microscopically detectable alteration of normal cell morphology
[8] = system: Vaccinia virus; test: microbe, parasite or virus in culture; format: cell-based; conditions: Orthopoxvirus vaccinia, HEL, read-out: Antiviral EC50, Vaccinia virus
[9] = system: Madin Darby canine kidney (MDCK) cells; conditions: dog
[10] = system: Human Coronavirus (229E); test: CPE reduction assay in HEL cells; format: cell-based; conditions: read-out: Antiviral EC50, Human Coronavirus (229E)
[11] = system: Adeno virus-2; test: CPE reduction assay in HEL cells; format: cell-based; conditions: read-out: Antiviral EC50, Adeno virus-2

COc1c(C)c2c(c(O)c1C/C=C(\C)CCC(=O)O)C(=O)OC2 [Mycophenolic acid, mycophenolic acid, reference compound]
EC50 [1]: 1.4 µM
EC50 [2]: 0.4 µM
EC50 [3]: 11.7 µM
EC50 [4]: 0.8 µM
EC50 [5]: 0.4 µM
EC50 [6]: > 100 µM
Minimum cytotoxic conc. [7]: >100 µM

Nc1nc2c(ncn2COCCO)c(=O)[nH]1 [Acyclovir, reference compound]
EC50 [8]: > 250 µM

CC(N)C12CC3CC(CC(C3)C1)C2 (stereo not drawn) [Rimantadine, reference compound]
Cytotoxicity, Minimum cytotoxic conc. [9]: >200 µM

NC(=O)c1ncn([C@@H]2O[C@H](CO)[C@@H](O)[C@H]2O)n1 [Ribavirin, reference compound]
EC50 [10]: > 250 µM
EC50 [2]: 112 µM
Cytotoxicity, Minimum cytotoxic conc. [9]: ≥100 µM
EC50 [3]: > 250 µM
EC50 [4]: > 250 µM
EC50 [5]: > 250 µM
EC50 [6]: > 250 µM
Minimum cytotoxic conc. [7]: >250 µM

Nc1nc(O)c2ncn(COC(CO)CO)c2n1 [Ganciclovir, reference compound]
EC50 [8]: > 100 µM

Nc1ccn([C@H]2CC[C@@H](CO)O2)c(=O)n1 [Zalcitabine, reference compound]
EC50 [11]: 50 µM

NC12CC3CC(CC(C3)C1)C2 [Amantadine, reference compound]
Cytotoxicity, Minimum cytotoxic conc. [9]: >100 µM

CC(=O)N[C@H]1[C@H]([C@H](O)[C@H](O)CO)OC(C(=O)O)=C[C@@H]1N=C(N)N [Zanamivir, reference compound]
Cytotoxicity, Minimum cytotoxic conc. [9]: >100 µM
